Reference: article PMC11714206, “Massively Parallel Screening of Toll/Interleukin‐1 Receptor (TIR)‐Derived Peptides Reveals Multiple Toll‐Like Receptors (TLRs)‐Targeting Immunomodulatory Peptides” (Advanced Science, 2024)
Blank lines part the entries; values can stand above or below the sequence they belong to.

Biological target: T1, MAL^TIR (Homo sapiens, UniProt P58753)
T1 construct: MAL (residues 79–221); 6xHis; made in house; host or cells: E. coli BL21 (DE3)
Test: T‐Surf phage library (P8 and P3) selection against MAL^TIR, four rounds, NGS read counts
Type: binding
Settings: for P8_MAL Rank (after) / P8_MAL Rank (before): P8 library; for Population: 4th round of selection against MAL TIR, share of NGS reads; for P3_MAL Rank (after) / P3_MAL Rank (before): P3 library
How it was run: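 Read counts come from NGS of phage pools enriched over four selection rounds on the plate‐coated TIR domain (5 µg mL^−1). Each round: 1 h phage binding at room temperature after 0.2% BSA blocking, Tween washes, acid elution, amplification in E. coli TG1 with M13KO7 helper.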

[1] = selection against MAL, rank after grouping
[2] = selection against MAL, rank before grouping
[3] = selection against MAL TIR, rank by count after grouping
[4] = selection against MAL TIR, rank by count before grouping
[5] = P8_MAL: rank by count after grouping
[6] = P8_MAL: rank by count before grouping
[7] = 4R selection against MAL, rank after grouping
[8] = 4R selection against MAL, rank before grouping
[9] = P8_MAL pool: P8 T-Surf phage library
[10] = selection against MAL, rank by count after grouping
[11] = selection against MAL, rank by count before grouping
[12] = P3_MAL: rank by count after grouping
[13] = P3_MAL: rank by count before grouping
[14] = P3_MAL pool: P3 T-Surf phage library

T1 sequence (P58753 79-221): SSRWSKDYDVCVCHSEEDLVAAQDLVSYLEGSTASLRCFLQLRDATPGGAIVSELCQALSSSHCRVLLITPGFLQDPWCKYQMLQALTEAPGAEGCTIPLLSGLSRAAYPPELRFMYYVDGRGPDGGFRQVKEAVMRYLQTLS

P8_MAL Rank (after) [1]: 526
P8_MAL Rank (before) [2]: 2219
Sequence: RNFVAYLFKALANTGI

P8_MAL Rank (after) [3]: 273
P8_MAL Rank (before) [4]: 2198
Sequence: RNFVAYLFQALADKGV

Rank (after) [5]: 183
Rank (before) [6]: 2199
Sequence: RNFVAYLFQALAHKSI

P8_MAL Rank (after) [7]: 591
P8_MAL Rank (before) [8]: 2191
Sequence: RNFVAYLFQALAKKGS

Rank (after) [5]: 164
Rank (before) [6]: 2209
Sequence: RNFVAYLFQALAKPA

Population [9]: 0.00371%
Sequence: RNFVAYLFQALANIGI

Population [9]: 0.00309%
Sequence: RNFVAYLFQALANKSI

P8_MAL Rank (after) [7]: 585
P8_MAL Rank (before) [8]: 2212
Sequence: RNFVAYLFQALANTSI

Population [9]: 0.00463%
Sequence: RNFVAYLFQELANKGI

Rank (after) [5]: 427
Rank (before) [6]: 2195
Sequence: RNFVAYLFQGLANKVI

Population [9]: 0.00371%
Sequence: RNFVAYLFRALANKGI

P8_MAL Rank (after) [3]: 225
P8_MAL Rank (before) [4]: 2193
Sequence: RNFVAYLFRARANKGI

Rank (after) [5]: 420
Rank (before) [6]: 2221
Sequence: RNFVAYLLQALAHKCI

Rank (after) [5]: 405
Rank (before) [6]: 2222
Sequence: RNFVAYLLQALANKSI

Rank (after) [5]: 160
Rank (before) [6]: 2225
Sequence: RNFVAYLVQALAKKGI

P8_MAL Rank (after) [10]: 687
P8_MAL Rank (before) [11]: 2235
Sequence: RNFVRICFRRWRIKA

P8_MAL Rank (after) [10]: 714
P8_MAL Rank (before) [11]: 2184
Sequence: RNFWRIFFRRWPIKG

Rank (after) [5]: 437
Rank (before) [6]: 2252
Sequence: RNIVAYPFQALANIGI

Rank (after) [12]: 407
Rank (before) [13]: 2606
Sequence: RNLAGLVYDCLTKTGA

P8_MAL Rank (after) [3]: 254
P8_MAL Rank (before) [4]: 2246
Sequence: RNLGAYLFQALANKGI

P8_MAL Rank (after) [1]: 541
P8_MAL Rank (before) [2]: 2312
Sequence: RNLLAYLRWAVANTVI

Rank (after) [5]: 416
Rank (before) [6]: 2243
Sequence: RNLVAYLFQALETKGI

Rank (after) [5]: 451
Rank (before) [6]: 2244
Sequence: RNLVAYLLQALANKGI

P8_MAL Rank (after) [7]: 603
P8_MAL Rank (before) [8]: 2242
Sequence: RNLVAYLLQPRANKCI

P8_MAL Rank (after) [7]: 658
P8_MAL Rank (before) [8]: 2245
Sequence: RNLVAYQFQALPNKGI

P8_MAL Rank (after) [10]: 685
P8_MAL Rank (before) [11]: 2261
Sequence: RNNFFGHLYHALYRIG

Rank (after) [5]: 428
Rank (before) [6]: 2264
Sequence: RNNFICHLYQELYRIG

P8_MAL Rank (after) [10]: 676
P8_MAL Rank (before) [11]: 2274
Sequence: RNNFIGHLYQALYRI

P8_MAL Rank (after) [10]: 699
P8_MAL Rank (before) [11]: 2283
Sequence: RNNFIGHLYQAPNQSV

P8_MAL Rank (after) [3]: 235
P8_MAL Rank (before) [4]: 2291
Sequence: RNNFIGHQYQALYRSR

P8_MAL Rank (after) [7]: 604
P8_MAL Rank (before) [8]: 2263
Sequence: RNNFLGYLYQALYRIG

P8_MAL Rank (after) [1]: 545
P8_MAL Rank (before) [2]: 2298
Sequence: RNNLMDRLYQALDLLR

P8_MAL Rank (after) [7]: 596
P8_MAL Rank (before) [8]: 2297
Sequence: RNNYIGHLYQALYRNG

P8_MAL Rank (after) [3]: 270
P8_MAL Rank (before) [4]: 2247
Sequence: RNSVAYLFQALADKGI

Rank (after) [12]: 441
Rank (before) [13]: 2614
Sequence: RNVMSHLYQGLQNRGI

P8_MAL Rank (after) [7]: 579
P8_MAL Rank (before) [8]: 2250
Sequence: RNYVAYLFQALANTGI

Rank (after) [5]: 407
Rank (before) [6]: 2249
Sequence: RNYVAYLFQALASKGI

P3_MAL Rank (after) [1]: 493
P3_MAL Rank (before) [2]: 2562
Sequence: RPLKWKEALHQFHSRV

Rank (after) [12]: 124
Rank (before) [13]: 594
Sequence: RRLKWKDALHQFHSWV

P3_MAL Rank (after) [7]: 668
P3_MAL Rank (before) [8]: 2560
Sequence: RRLKWKEALHQLYSWV

Population [14]: 0.05%
Rank (after) [12]: 98
Rank (before) [13]: 98
Sequence: RRTFLSHLQHHFASKG

Rank (after) [12]: 160
Rank (before) [13]: 3232
Sequence: RSFRDGLWRLLELSKK

P3_MAL Rank (after) [1]: 506
P3_MAL Rank (before) [2]: 2575
Sequence: RSFRDRLWRHLQLNEK

P3_MAL Rank (after) [1]: 507
P3_MAL Rank (before) [2]: 2627
Sequence: RSFREGLWRLLELRKQ

P8_MAL Rank (after) [3]: 240
P8_MAL Rank (before) [4]: 2178
Sequence: RSFVASLFQALANKGI

Population [9]: 0.0034%
Sequence: RSFVAYLFQALANKGI

P3_MAL Rank (after) [1]: 577
P3_MAL Rank (before) [2]: 2628
Sequence: RSLRERLWRLLALSKK

Population [14]: 0.0124%
Sequence: RVFLSHLRHHLQAKDH

P3_MAL Rank (after) [10]: 700
P3_MAL Rank (before) [11]: 2346
Sequence: RVFLSHPRHHLQAKDP

P8_MAL Rank (after) [3]: 218
P8_MAL Rank (before) [4]: 926
Sequence: RWFLDELVKIMERKRT

Rank (after) [12]: 471
Rank (before) [13]: 3228
Sequence: RWFWDKLIYALSRNTH
